# Experimental data from patent publication US20070167509A1, “Use of phenserine and analogs to treat behavioral problems and improve trainability” (priority 2005, published 2007).
# How the values were obtained:
# Assay type in all cases: in vivo
# [1] = system: aged dogs; assay: CP-118,954 study of DNMP performance, counter-balanced within-subject design
# [2] = system: middle-aged beagle dogs; assay: delayed-non-matching-to-sample task (DNMS), recognition memory; conditions: 0.5 mg/kg dose
# Experimental: The present study assessed the effects of a 0.5 mg/kg dose of phenserine in middle-aged dogs tested on a recognition memory task.
# Six middle-aged beagle dogs (4 female and 2 male) served as subjects. Dogs were divided equally into 2 groups matched for performance on their most recent 10 sessions on the delayed-non-matching-to-sample task (DNMS; (Callahan et al., 2000). One group was administered phenserine (0.5 mg/kg) via capsule in a meatball and the second group served as control. Animals were tested one-hour after drug administration and were tested on a total of 20 test sessions.
# To examine the effects of phenserine on DNMS performance, mean performance over groups of five test sessions was analyzed (see e.g., FIG. 1).
# [3] = system: senior beagle dogs; assay: relearning of the delayed-non-matching-to-position task (DNMP); conditions: N=4
# Experimental: Five male and two female senior beagle dogs (M+S.D.=14.60+1.46 years) served as subjects (Table 1). Dogs were divided into two groups matched on their most recent DNMP performance; the first group (N=4) was administered phenserine (0.5 mg/kg) via capsule in a meatball and the second group (N=3) was administered a placebo meatball. Dogs received a five-day wash-in period prior to study initiation and were administered their respective treatments 1-hour prior to DNMP testing. Dogs were trained initially on the DNMP using a 5-s delay until a 2-stage criterion was passed. The first stage required animals to achieve a score of 11/12 on one day, a score of 10/12 over two consecutive days, or a score of 29/36 over three consecutive days. Subsequently, the dogs were required to achieve a score of 26/36 over the following three days to pass the second stage.
# [4] = system: senior beagle dogs; assay: variable-delay DNMP under scopolamine / saline challenge; conditions: scopolamine 15 μg/kg SC, 20-s (p=0.038) and 80-s (p=0.082) delays
# Experimental: Following relearning of the DNMP, dogs were tested on a variable-delay paradigm in which delays of 20 and 80 s were used. The delays occurred equally among the trials in a daily test session. We have previously shown that the 15-μg/kg dose selectively impairs DNMP performance (Araujo et al., 2004a). The dogs were first divided into two groups, one that was administered phenserine and the other received a placebo control. All subjects were given a 5-day stabilization period and then tested under scopolamine (15 μg/kg, SC) and saline (SC), administered 45 min prior to testing, over two test days separated by a treatment washout day. One day following the second treatment day, animals were removed from phenserine or placebo treatments and re-tested on the stabilization days and under scopolamine and saline treatment as indicated above.
structure (smiles),measurement,setting,value
"O=C1Cc2cc3c(CCC4CCN(Cc5ccccc5)CC4)noc3cc2N1 [CP-118,954]",DNMP performance,[1],no significant improvement
"CN1CC[C@@]2(C)c3cc(OC(=O)Nc4ccccc4)ccc3N(C)[C@@H]12 [phenserine, (−)-phenylcarbamoyleseroline]",adverse effects,[2],No obvious adverse effects
same,mean errors to relearn the DNMP (M+SEM),"[3]; 0.5 mg/kg via capsule 1 hour prior to testing, 5-s delay, placebo 14.33+6.98",5.25+0.85 errors
same,fewer errors compared to the most previous relearning rates (M+SEM),"[3]; 0.5 mg/kg, placebo group showed more errors (6.33+9.53)",5.00+4.51 errors
CN1[C@@H]2C[C@@H](OC(=O)[C@H](CO)c3ccccc3)C[C@H]1[C@@H]1O[C@@H]12 [scopolamine],DNMP performance of the placebo group after treatment with scopolamine,[4],performance deficits
